Measured values taken from article PMC9953095, “Design, Synthesis and Biological Evaluation of Quinazolinamine Derivatives as Breast Cancer Resistance Protein and P-Glycoprotein Inhibitors with Improved Metabolic Stability” (Biomolecules, 2023).
Where “and” joins values, the source holds several entries; their conditions need not be identical. Equal entries are not always repeated. Where two headings read alike, the source gives them in different places.

How the values were obtained:
[1] = Metabolic stability with human liver microsomes; assay type: in vitro ADME; conditions: after 1 h of incubation with human liver microsomes, 37 °C, NADPH; also: tested at 200 µM
Experimental: Human liver microsome (20 mg/mL) 6.25 µL, nicotinamide adenine dinucleotide phosphate (NADPH) (0.75 µmol), MgCl2 (0.75 µmol), and the test compound (0.05 µmol) were added into a potassium phosphate buffer (pH 7.4) with 250 µL of final volume. The incubation was carried out aerobically at 37 °C. The mixture was pre-incubated without NADPH for 10 min at 37 °C and NADPH was added to start the reaction. At 1 h after the start of the reaction, an aliquot (50 µL) of the incubation mixture was taken from each incubation and mixed with 150 µL of ice-cold acetonitrile to terminate the reaction. Subsequently, the sample was centrifuged (12,000 rpm) at room temperature. The resulting supernatant was filtered and analyzed using HPLC (LC, Agilent 1200; column, HC-C18(2); column temperature, 25 °C; mobile phase, solvent A, methanol, solvent B, water; gradient elution, 30–99% solvent A; flow rate, 1 mL/min; UV signals were recorded at 254 nm).

H460 cells = assay: [3H]-mitoxantrone accumulation assay, H460; assay type: cell-based, human; conditions: parental H460 cells; compound 5 μM; Figure 6A
Experimental: (§1) To determine the accumulation of drugs on H460, H460/MX20, KB-3-1, and KB-C2 cells, the cells ([…] cells/well) were seeded in the 24-well plates and incubated at 37 °C with 5% CO2 [17]. After 12 h of incubation, a test compound (5 µM) was added and the plates were incubated at 37 °C for 2 h. Cells were then incubated with 0.01 µM [^3H]-MX or [^3H]-paclitaxel-containing medium for an additional 2 h at 37 °C, with or without a test compound. The cells were washed twice with ice-cold phosphate-buffered saline (PBS), trypsinized and lysed at the end of incubation. The radioactivity was measured using the Packard TRICARB1 1900A liquid scintillation analyzer.

[2] = test system: BCRP-overexpressing H460/MX20 cells; assay: [3H]-mitoxantrone accumulation assay, H460/MX20; assay type: cell-based, human
Experimental: as §1

BCRP ATPase = target: T1, BCRP ATPase (Homo sapiens, UniProt Q9UNQ0); assay: Vanadate-sensitive BCRP ATPase assay; assay type: biochemical; conditions: membrane vesicles of High Five insect cells; Figure 10A,B
T1 construct: host or cells: High Five insect cells (membrane vesicles)
T1 sequence (Q9UNQ0 1-655): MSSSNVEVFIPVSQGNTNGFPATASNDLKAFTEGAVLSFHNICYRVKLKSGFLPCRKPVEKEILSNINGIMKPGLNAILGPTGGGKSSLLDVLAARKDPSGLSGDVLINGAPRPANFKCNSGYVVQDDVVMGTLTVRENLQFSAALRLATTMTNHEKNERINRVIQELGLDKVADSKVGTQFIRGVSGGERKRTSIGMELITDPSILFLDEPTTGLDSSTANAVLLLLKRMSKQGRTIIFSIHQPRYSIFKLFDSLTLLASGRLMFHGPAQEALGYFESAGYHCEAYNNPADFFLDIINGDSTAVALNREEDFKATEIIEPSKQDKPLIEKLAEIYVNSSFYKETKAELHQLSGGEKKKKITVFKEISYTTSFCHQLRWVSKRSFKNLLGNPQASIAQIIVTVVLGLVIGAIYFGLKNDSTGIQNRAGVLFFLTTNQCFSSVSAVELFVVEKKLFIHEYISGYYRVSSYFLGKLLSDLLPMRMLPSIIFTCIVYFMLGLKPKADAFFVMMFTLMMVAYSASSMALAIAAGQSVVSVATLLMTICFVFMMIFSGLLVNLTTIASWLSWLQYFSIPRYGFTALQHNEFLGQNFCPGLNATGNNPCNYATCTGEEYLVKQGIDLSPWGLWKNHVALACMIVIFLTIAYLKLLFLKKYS
Experimental: The vanadate (Vi)-sensitive ATPase activity of BCRP and P-gp in the membrane vesicles of High Five insect cells was measured as described previously. The results were presented as vanadate-sensitive ATPase activities by determining the difference in inorganic phosphate liberation measured in the presence and absence of sodium orthovanadate.

[3] = test system: BCRP localization in H460/MX20 cells; assay: Immunofluorescence assay of BCRP localization in H460/MX20 cells; assay type: cell-based, human; conditions: 5 μM for 24, 48, and 72 h, Figure 8A,C
Experimental: For immunofluorescence analysis, parental and drug-resistant cells were seeded in 24-well plates at 10,000–20,000 cells/well and incubated for 24 h. The cells were incubated with or without cyclopropyl quinazolinamine 22 or azide quinazolinamine 33 for 24 h, 48 h, and 72 h. Thereafter, cells were washed with PBS and fixed with 4% paraformaldehyde for 10 min at room temperature and then rinsed with PBS twice, followed by permeabilization with 1% Triton X-100 for 10 min at 4 °C. The cells were again washed twice with PBS, and then blocked with 6% BSA for 1 h at 37 °C. Fixed cells were incubated with monoclonal antibody against the BCRP protein (BXP 21) (Sigma-Aldrich, Inc., St. Louis, MO) (1:1000) or P-gp (F4) (Sigma-Aldrich, Inc., St. Louis, MO, USA) overnight at 4 °C, followed by two washes with PBS. The cells were then further incubated with Alexa flour 488 goat anti-mouse IgG (1:1000) (Abcam plc.) for 2 h at 37 °C. After the cells were washed twice with PBS, 4′,6-diamidino-2-phenylindole (DAPI) (2 µg/mL) was used for nuclear counterstaining. The immunofluorescence images were generated using a Nikon TE-2000S fluorescence microscope (Nikon Instruments Inc, Melville, NY, USA).

[4] = test system: BCRP protein in H460/MX20 cells; assay: Western blot of BCRP expression in H460/MX20 cells; assay type: cell-based, human; conditions: H460/MX20 total cell lysate; Figure 7
Experimental: Cells in T25 flask were washed with ice-cold PBS. Lysis buffer (100 µL) was added into T25 flask. Using a cell scraper, scrape adherent cells were scraped off the flask and the cell suspension was transferred into a microcentrifuge tube (1.5 mL). Cells were agitated for 20 min at 4 °C and cell lysate was centrifuged mixture at 4 °C for 20 min at 12,000 rpm. The supernatant (lysate) was used for the gel electrophoresis. Equal amounts of total cell lysates (20 µg protein) were resolved by sodium dodecyl sulfate polyacrylamide gel electrophoresis (SDS-PAGE) and electrophoretically transferred onto polyvinylidene fluoride (PVDF) membranes. After incubation in a blocking solution (5% milk) for 2 h at room temperature, the membranes were incubated overnight with primary monoclonal antibodies against GAPDH (GA1R) (Invitrogen, Carlsbad, CA, USA) at 1:1000 dilution of BCRP protein (BXP 21) (Sigma-Aldrich, Inc., St. Louis, MO, USA) (1:1000) or P-gp (F4) (Sigma-Aldrich, Inc., St. Louis, MO, USA) at 4 °C, and were further incubated with horseradish […] (HRP)-conjugated secondary antibody (Thermo Fisher Scientific Inc., Waltham, MA, USA) at 1:1000 dilution for 2 h at room temperature. The protein antibody complex was detected using an enhanced chemiluminescence detection system. The grayscale ratio was analyzed by ImageJ and normalized by the grayscale of the ABC protein divided by that of GAPDH.

[5] = test system: BCRP-mediated MDR cell line H460/MX20; assay: MTT reversal assay with mitoxantrone, BCRP-overexpressing H460/MX20 cells; assay type: cell-based; conditions: Homo sapiens, NCI-H460/MX20, H460/MX20, mitoxantrone alone, read-out: IC50 ± SD of mitoxantrone
Experimental: (§2) The human lung cancer cell line H460, and its MX-selected derivative BCRP-overexpressing cell line, H460/MX20, were used in this study. The KB-C2 cell line was selected by colchicine (Alfa Aesar, Haverhill, MA, USA) (2 μg/mL) with human cervical carcinoma cell line KB-3-1.
(§3) Cytotoxicity tests and reversal experiments were performed using the 3-(4,5-dimethylthiazol-2-yl)-2,5-diphenyltetrazolium bromide (MTT) colorimetric assay. Cells were seeded evenly into 96-well plates. […] To determine the MDR reversal efficacy of the quinazolinamine derivatives, an anticancer drug (mitoxantrone, colchicine, paclitaxel or cisplatin) was added into the designated wells after 2 h pre-incubation with a quinazolinamine derivative or a positive control inhibitor at non-toxic concentrations. After 72 h of drug incubation, the MTT reagent (4 mg/mL) was added into the wells, and then the plates were incubated for an additional 4 h. Subsequently, the supernatant was discarded and 100 µL of dimethyl sulfoxide (DMSO) was added to dissolve the formazan crystals. Cell viability was determined by measuring the absorbance by using an accuSkan™ GO UV/Vis Microplate Spectrophotometer (Fisher Sci., Fair Lawn, NJ, USA) at a wavelength of 570 nm.

[6] = test system: human lung cancer cell line H460; assay: MTT reversal assay with mitoxantrone, parental H460 cells; assay type: cell-based; conditions: NCI-H460, H460, mitoxantrone alone, read-out: IC50 ± SD of mitoxantrone
Experimental: as §2, §3

[7] = test system: P-gp-mediated multidrug-resistant cell line KB-C2; assay: cells; conditions: Homo sapiens, KB-C2, read-out: IC50 value of colchicine
Experimental: as §2, §3

Compound: CCc1ccc(Nc2nc(-c3ccncc3)nc3ccccc23)cc1 [Compound 4, N-(4-Ethylphenyl)-2-(pyridin-4-yl)quinazolin-4-amine]
- melting point: 228 to 230 °C
- Metabolic Stability, % compound remaining [1]: 87 ± 12%

Compound: CCCc1ccc(Nc2nc(-c3ccncc3)nc3ccccc23)cc1 [Compound 5, N-(4-Propylphenyl)-2-(pyridin-4-yl)quinazolin-4-amine]
- melting point: 212 to 214 °C
- Metabolic Stability, % compound remaining [1]: 80 ± 5%

Compound: CC(C)c1ccc(Nc2nc(-c3ccncc3)nc3ccccc23)cc1 [Compound 23, N-(4-Isopropylphenyl)-2-(pyridin-4-yl)quinazolin-4-amine]
- Metabolic Stability, % compound remaining [1]: 75 ± 6%

Compound: CCc1cccc(Nc2nc(-c3ccncc3)nc3ccccc23)c1 [Compound 24, N-(3-Ethylphenyl)-2-(pyridin-4-yl)quinazolin-4-amine]
- Metabolic Stability, % compound remaining [1]: 91 ± 3%

Compound: COc1ccc(Nc2nc(-c3ccncc3)nc3ccccc23)cc1 [Compound 27, N-(4-Methoxyphenyl)-2-(pyridin-4-yl)quinazolin-4-amine]
- Metabolic Stability, % compound remaining [1]: 83 ± 1%

Compound: [N-]=[N+]=Nc1ccc(Nc2nc(-c3ccncc3)nc3ccccc23)cc1 [Compound 33, N-(4-Azidophenyl)-2-(pyridin-4-yl)quinazolin-4-amine]
- accumulation of mitoxantrone (H460 cells): slightly increase
- accumulation of mitoxantrone after UV light activation ([2]; H460/MX20, compound followed by UV light activation): increased compared to the group without activation
- accumulation of mitoxantrone ([2]; resistant H460/MX20 cells, compound 5 μM, Figure 6A): increased the accumulation
- effect on Vi-sensitive BCRP ATPase activity (ATP hydrolysis) (BCRP ATPase): significantly stimulated
- Metabolic Stability, % compound remaining [1]: 86 ± 11%
- BCRP fluorescence on the membranes / intracellular localization of BCRP [3]: did not change the intracellular localization
- expression level of BCRP protein [4]: not altered

Compound: COc1ccc2c3c([nH]c2c1)[C@H](CC(C)C)N1C(=O)[C@H](CCC(=O)OC(C)(C)C)NC(=O)[C@@H]1C3 [Ko143, reference compound]
- Metabolic Stability, % compound remaining [1]: 41% and 41 ± 7%

Compound: O=C1c2c(O)ccc(O)c2C(=O)c2c(NCCNCCO)ccc(NCCNCCO)c21 [Mitoxantrone]
- IC50 ([5]; Table 1 series): 5.66 ± 0.29 µM
- IC50 ([5]; Table 2 series): 6.5 ± 0.14 µM
- IC50 ([6]; Table 1 series): 72 ± 9 nM
- IC50 ([6]; Table 2 series): 154 ± 51 nM

Compound: COc1cc2c(c(OC)c1OC)-c1ccc(OC)c(=O)cc1[C@@H](NC(C)=O)CC2 [colchicine]
- IC50 [7]: 7.34 µM
